Assays:
[1] = system: IL-1β mRNA; assay: Real-time PCR of IL-1β mRNA in suture-induced inflamed corneas; type: in vivo, mice; settings: 24 h and 72 h after suture placement; vs vehicle-treated controls
Procedure: FIG. 3. Lipoxin Reduces Cytokine mRNA Expressions in Inflamed Corneas. ATLa or vehicle was subconjunctivally injected at 0 h and 48 h after suture placement. For each compound treatment, corneas were harvested from a group of mice at 24 h, and another group at 72 h after suture placement, as well as from normal untreated control corneas (6 corneas per group). mRNA levels of inflammatory cytokines (including IL-1α, IL-1β, and TNF-α) were determined by real-time PCR. Data were normalized to GAPDH mRNA and values were expressed as the fold change over normal control corneas. Results represent the mean (±SEM) of three samples per group (each sample consisted of 2 pooled corneas), and data are representative of two independent experiments (*P<0.05, **P<0.001 vs vehicle-treated group, t-test). […]
(§1) BALB/c mice were randomized to receive ATLa, or vehicle (normal saline) by subconjunctival injection in a masked fashion after suture or hydron pellet placement. […] ATLa was synthesized as described previously.^20 The physical properties were monitored routinely via LC/MS/MS matching the reported biological and physical properties prior to analysis in present experiments. […]

[2] = system: VEGF-C mRNA; assay: Real-time PCR of VEGF-C mRNA in suture-induced inflamed corneas; type: in vivo, mice; settings: 24 h and 72 h after suture placement; vs vehicle-treated group
Procedure: (§2) FIG. 4. The Impact of Lipoxin on the mRNA Expression of VEGFs and VEGFRs in Inflamed Corneas. ATLa or vehicle was subconjunctivally injected at 0 h and 48 h after suture placement. For each compound treatment, corneas were harvested from a group of mice at 24 h, and another group at 72 h after suture placement, as well as from normal untreated control corneas (6 corneas per group). (A) VEGF ligand species (VEGF-A, VEGF-C, VEGF-D) and (B) VEGFRs (VEGFR2 and VEGFR3) were tested by real-time PCR and normalized to GAPDH mRNA. Values are expressed as fold change over the normal control cornea. Results represent the mean (±SEM) of three samples per group (each sample consisted of 2 pooled corneas), and the data are representative of two independent experiments (*P<0.05, **P<0.001, ***P<0.0005, vs vehicle-treated group, t-test). […]
as §1

[3] = system: VEGF-D mRNA; assay: Real-time PCR of VEGF-D mRNA in suture-induced inflamed corneas; type: in vivo, mice; settings: after suture placement; vs vehicle-treated controls
Procedure: as §2, §1

[4] = system: VEGFR-3 mRNA; assay: Real-time PCR of VEGFR-3 mRNA in suture-induced inflamed corneas; type: in vivo, mice; settings: after suture placement; vs vehicle-treated controls
Procedure: as §2, §1

[5] = system: macrophage phagocytosis (e.g. of apoptotic neutrophils); settings: reference 26; cited from earlier work

COC(=O)CCC[C@H](O)[C@H](O)/C=C/C=C/C=C\C=C\[C@H](O)COc1ccc(F)cc1 [ATLa, 15-epi-16-(para-fluoro)-phenoxy-lipoxin A4 methyl ester]
reduction in the increase of IL-1β expression levels (mRNA) [1]: more than 50% | VEGF-C mRNA expression [2]: lower | VEGF-D mRNA expression [3]: not significantly altered | VEGFR-3 mRNA expression [4]: not significantly altered | macrophage phagocytosis [5]: increase

Source: patent US20100105772A1, “USE OF NOVEL LIPID MEDIATORS TO INHIBIT ANGIOGENESIS” (priority 2008, published 2010)
